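Exposure lasted 48 hours, with cells grown in 96-well plates and compounds tested at five concentrations. Definition used: TGI = concentration required for complete inhibition of growth.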 Bounds are passed on as bounds.

Common to all, as to experiment: NCI tumour cell line growth inhibition, 48 h
Experiment [1] deals with KM20L2 colon.
The subject of experiment [2] is XF 498 CNS.
The subject of experiment [3] is SNB-78 CNS.
In experiment [4] the test system is LXFL 529 NSCLC.
Experiment [5] has as its system M19-MEL melanoma.
Experiment [6] relates to DLD-1 colon.
The test system of experiment [7] is HOP-18 NSCLC.
In experiment [8] the test system is RXF-631 renal.
Experiment [9] relates to BT-549 breast.
For experiment [10], the system named is SN12K1 renal.

For the molecule `CC(=O)NNc1nc(C)c(C(=O)NNC(=O)C(=O)Nc2c(C)cccc2C(C)(C)C)s1`, the TGI in experiment [1], in [2], in experiment [3], in experiment [4], in experiment [5] and in experiment [6] was over 100 µM each time.
`COC(=O)C1=C(C)N2CCOC2CC1c1ccccc1` (configuration not stated): the TGI in [1], in experiment [4], in [5] and in [6] was over 100 µM throughout.
Take `C[N+](C)=c1nc(N2CCc3ccccc3C2)ss1`: the TGI in experiment [7], in experiment [1], in [3], in experiment [4], in experiment [5] and in experiment [8] was over 100 µM each time. The TGI in experiment [6] was over 100 µM.
In [9], `COc1cc(C(=O)Nc2cc(C(N)=O)cc(OC)c2OC)cc(NC(=O)/C=C/c2ccccc2)c1OC` displayed a TGI of over 100 µM.
Same read-out and setting: for `CNCCC=C1c2ccccc2CCc2ccccc21` the value was 29.1 µM.
Still for that read-out and setting: for `CN(C)CCN(C(=Nc1ccccc1)N1CCCC1)c1ccccc1` the value was over 100 µM.
With `O=C(CCN1CCOCC1)C(=Cc1ccccc1)C(=O)CCN1CCOCC1`, the TGI in [7] turned out to be 30.6 µM; in experiment [1] it was 25 µM; in [2], 12.8 µM; in [3] it was 8.5 µM; in experiment [5], 7.64 µM; in experiment [6] it was 3.84 µM. Besides, the TGI in [10] came out at 5.68 µM.
The molecule `COc1cc2oc(=O)ccc2cc1CC=C(C)C` showed a TGI in experiment [9] of 81 µM.
`NCc1cc(O)c(O)c(O)c1`: the TGI in [7], in experiment [1], in experiment [2], in [3], in experiment [4] and in experiment [5] was over 100 µM in each case. Besides, the TGI in experiment [8] and in experiment [6] was over 100 µM each time.
`O=C(N/N=C\C(F)(F)F)c1ccncc1`: the TGI in experiment [9] is over 100 µM.

The values above are taken from PubChem BioAssay (NCI).
